Data as given in patent US10292945B2, “Dressings that contain active substance” (BEIERSDORF AG, priority 2011, dated 2019).

Experiment: Active substance release from acrylate adhesive matrix into pig skin by Franz's cells, HPLC determination
Type: in vitro ADME
From the text: The release of the active ingredients within the product is advantageously adjusted such that an effect can still be perceived even after a period of 2 days. The delayed effect of the active substances used is achieved here from combination of active substance content and auxiliaries. The release of the active substances can be controlled over a wide time range via the use of e.g. plasticizers and fillers. Examples of such systems are pain patches on the market that contain opiates such as fentanyl, which are applied over several days up to a week and ensure an absolutely uniform release of the active substance over the entire application time. For the determination of the release rate of vanillyl butyl ether (VBE) from e.g. acrylate compositions, it was incorporated into the adhesive compositions in an amount of 0.75% and the release was ascertained over the time in pig skin by means of Franz's cells. Determination of the released amounts into the full-thickness skin was then carried out by HPLC.
One possible measure to increase the active ingredient release is the use of solubilizers. […] For the two other additives, lower values were determined, meaning that decyl oleate (Cetiol V) in particular is a preferred solubilizer in the adhesive composition. […]

In the case of `CCCCCCCC/C=C\CCCCCCCC(=O)OCCCCCCCCCC` [Cetiol V, decyl oleate], the “Effect of added solubilizer on released amount of VBE in pig skin” value is reported as “significant increase in the released amount of VBE”.
